Experimental data from paper PMC12477080, “Polychlorinated biphenyls (PCBs) interact with drug metabolism in vivo” (Archives of Toxicology, 2025).

Legend:
CYP2C9 = assay: CYP phenotyping cocktail clinical study: torsemide/OH-torsemide metabolic ratio and its association with PCB plasma levels
Procedure: (§1) The participants were ascertained not to have any acute disease by medical history, physical examination, laboratory screening, including hematological and biochemical blood tests, and a 12-lead electrocardiogram. […] The demographic data of the subjects are summarized in Table 1 in the supplemental data. At the enrollment visit, 2 blood samples (9 ml each) were collected into ethylenediaminetetraacetic acid (EDTA)-containing tubes taken from each subject for analyzing the plasma concentrations of PCB congeners and for pharmacogenetic analysis.
(§2) Participants stayed fasted from the evening before until 3 h after drug administration. After that, a meal was provided. Water and juice were permitted but alcoholic and caffeinated beverages were not allowed from the evening before drug administration until the last blood sample was taken on the next day. Venous blood samples (9 ml each) were collected through an intravenous catheter immediately before and 0.25, 0.5, 0.75, 1, 1.5, 2, 2.5, 3, 4, 5, 6, 7, 8, and 24 h after drug administration. Blood was drawn into EDTA-coated tubes, centrifuged at 1500 g for 10 min at 4 °C, and plasma samples were subsequently stored at − 80 °C until further analysis. After completely voiding the bladder immediately before drug administration, the participants collected urine from 0 to 24 h after drug administration. After weighing the collected urine, a 10 ml aliquot of each fraction was taken.
(§3) Commercially sourced standards and internal standards were used for quantification (see Supplemental Materials). In brief, 20 µl of the plasma samples were protein-precipitated with 80 µl methanol containing all internal standards or were treated for 16 h at 37 °C with 2 µl β-glucuronidase (1,000,000 Units) for deconjugation before protein precipitation with 78 µl methanol containing internal standards. Samples were centrifuged for 20 min, at 4 °C and 17,000 × g, and 40 µl of the supernatants were diluted with 40 µl LC–MS grade water, centrifuged again for 5 min at 4 °C and 17,000 × g and 50 µl supernatant were transferred to LC–MS vials 5 µl of the samples were injected into the LC–MS system.
(§4) An Agilent 1290 Infinity II UHPLC coupled with a SCIEX QTRAP6500 + triple quadrupole mass spectrometer was used. Chromatographic separation was achieved on an Agilent Poroshell 120 EC-C18 (1.9 µm, 2.1 × 50 mm) column with A: 0.1% formic acid in water and B: methanol with a flow rate of 0.7 ml/min and a total run time of 8.5 min. Analytes were eluted using a gradient program. The following gradient steps represent gradual changes in % B over time: 5% B from 0 to 0.2 min, 30% B at 2 min, 34% B at 4.8 min, 95% B at 6.5 min, 95% B at 7.5 min and re-equilibrating to 5% B at 7.7 min and 5%B till 8.5 min. A representative chromatogram is shown in supplemental Fig. 2. The scheduled MRM mode was applied for analyte detection in both positive and negative ESI modes (Supplementary Table 4). Calibration curves were constructed with linear regression using weighted (1/x^2) models (detailed information in supplemental methods).
(§5) Partial areas under the plasma concentration–time curves from 0 to 3 h (AUC0–3 h), from 0 to 4 h (AUC0–4 h), and from 0 to 8 h (AUC0–8 h) were calculated based on measured concentrations by the linear trapezoidal rule without extrapolation. […] Metabolic ratios (MR) were calculated by dividing the partial AUC of the metabolite by the respective partial AUC of the parent drug. The MRs were used as biomarkers for the individual CYP activities of the study subjects.

recombinant CYP2C9 = recombinant CYP2C9 (Homo sapiens, UniProt P11712); conditions: PCB74 1–10 µM; Luciferin–ME substrate
Procedure: (§6) CYP1A2 and CYP2C9 enzyme activity was first assessed using a luciferase-based P450-Glo™ screening system (Promega, Madison, WI, USA) following the manufacturer’s instructions. The reaction mixture consisted of 1 nM recombinant enzyme (CYP1A2 or CYP2C9), 250 µM luciferin–ME substrate, 0.1 M potassium phosphate buffer (pH 7.4), and an NADPH regeneration system (including NADP⁺, glucose-6-phosphate, MgCl₂, and glucose-6-phosphate dehydrogenase), in a total volume of 50 µL. Controls for enzyme inhibition included α-naphthoflavone (1 µM) for CYP1A2 and sulfaphenazole (2 µM) for CYP2C9. After preincubation at 37 °C for 10 min (excluding NADPH), the reaction was initiated by adding the NADPH regeneration system and incubated for 30 min. To terminate the reaction and generate luminescence, 50 µL of Luciferin Detection Reagent was added, followed by a 20-min incubation at room temperature. Luminescence was measured using a luminometer, with light intensity proportional to CYP activity. […] Enzyme activity was quantified relative to a d-luciferin standard curve and expressed as pmol luciferin/min/pmol CYP. […] Cells were maintained at 37 °C with 5% CO₂ throughout the experiment. […] Supernatants were transferred to LC–MS vials and analyzed for relevant metabolites. Details on metabolite quantification are provided in the supplemental file. […]

[1] = molecular target: HEK293 cells overexpressing CYP2C9 (Homo sapiens, UniProt P11712); conditions: 0.1, 0.5, 1 µM PCB74, 24 h, then 10 µM torsemide 24 h
Procedure: as §6

CYP2D6 = assay: CYP phenotyping cocktail clinical study: metoprolol/α-OH-metoprolol metabolic ratio and its association with PCB plasma levels; conditions: linear regression of MR AUC0–8 h α-OH-metoprolol/metoprolol (CYP2D6 activity) on PCB plasma concentration
Procedure: as §1, §2, §3, §4, §5

[2] = Determination of PCB concentrations in plasma of HELPcB and control participants; type: in vivo; conditions: human plasma
Procedure: The laboratory regularly participates in round robins for the determination of PCBs in plasma (www.g-equas.de).
Plasma concentrations of PCB congeners were quantified in blood samples from all participants using gas chromatography/mass spectrometry (GC–MS) (Fig. 2A and Supplementary Table 2). A total of 19 PCB congeners were measured in control (n = 10) and HELPcB (n = 10) participants, with PCBs detected in all individuals. […] In the control group, PCB plasma concentrations primarily reflected background environmental exposure, such as dietary intake, representing the general population’s burden.

CYP2B6 = assay: CYP phenotyping cocktail clinical study: efavirenz/8-OH-efavirenz metabolic ratio and its association with PCB plasma levels; conditions: linear regression of MR AUC0–8 h 8-OH-efavirenz/efavirenz (CYP2B6 activity) on PCB plasma concentration
Procedure: as §1, §2, §3, §4, §5

CYP2C9 mRNA = conditions: primary human hepatocytes, three donors, 48 h exposure; PCB74 0.1 and 0.5 µM
Human CYP1A2 = molecular target: T1, Human CYP1A2 (Homo sapiens, UniProt P05177); assay: In vitro metabolism by CYP1A2 Supersomes; type: in vitro ADME
T1 construct: purchased; host or cells: insect cells
T1 sequence (P05177 2-516 limits assumed): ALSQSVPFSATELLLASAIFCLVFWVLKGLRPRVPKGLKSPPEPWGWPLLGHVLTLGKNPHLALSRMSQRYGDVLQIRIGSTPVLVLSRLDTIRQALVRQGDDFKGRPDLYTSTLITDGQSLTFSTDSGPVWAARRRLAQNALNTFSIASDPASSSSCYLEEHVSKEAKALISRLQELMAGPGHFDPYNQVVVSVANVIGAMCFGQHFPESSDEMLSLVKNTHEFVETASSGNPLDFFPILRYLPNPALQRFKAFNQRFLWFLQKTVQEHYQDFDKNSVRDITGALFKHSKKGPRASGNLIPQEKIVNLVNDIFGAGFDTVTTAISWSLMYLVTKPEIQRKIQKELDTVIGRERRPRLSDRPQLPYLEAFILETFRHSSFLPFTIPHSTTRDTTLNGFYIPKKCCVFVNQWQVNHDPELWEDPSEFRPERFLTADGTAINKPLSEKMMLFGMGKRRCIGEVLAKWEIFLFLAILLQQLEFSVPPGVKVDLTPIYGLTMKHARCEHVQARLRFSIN
Procedure: To investigate the metabolism of PCB118 by CYP1A2, incubation assays were conducted using CYP1A2 supersomes in a total reaction volume of 100 µL. Reaction mixtures were assembled on ice. […] Reactions were initiated by the addition of CYP1A2 supersomes.
To assess potential non-enzymatic transformations and confirm NADPH-dependent metabolism, control incubations were performed under the following conditions: buffer and enzyme only (no-substrate control), substrate, buffer, and NADPH without enzyme (no-enzyme control), and substrate, buffer, and enzyme without NADPH (no-NADPH control). Each experimental condition was conducted in triplicate, while control conditions were performed as single replicates.
The resulting supernatants (100 µL) were transferred to LC–MS vials, yielding samples with 80% methanol content for analysis. For the detection of hydroxylated PCB metabolites, reactions were stopped by adding 500 µL methanol, followed by the addition of 50 µL of an internal standard mix (10 ng/mL). Samples were vortexed for 1 min and centrifuged at 4,500 rpm for 10 min. The resulting supernatants were transferred to glass LC vials and evaporated under a nitrogen stream at 45 °C until approximately 50 µL remained. Samples were then reconstituted in 100 µL of 0.1 M ammonium acetate buffer (pH 5.3) before transfer to inserts for LC–MS analysis.
To determine whether PCB118 serves as a substrate for CYP1A2 and could act as a competitive inhibitor for other CYP1A2 substrates, we conducted in vitro metabolism experiments. […] In parallel, CYP1A2-mediated metabolism of PCB118 was assessed. […] The identity of 4-OH-CB107 was verified by comparison with an authentic reference standard, showing identical retention time and spectral characteristics (supplemental Fig. 1).

CYP1A2 mRNA = CYP1A2 mRNA expression in primary human hepatocytes (qRT-PCR); type: cell-based; conditions: three donors, 48 h exposure, PCB118 0.1–0.5 µM, omeprazole positive control
[3] = Stability of substrates and metabolites in quality control samples (benchtop, autosampler, freeze-thaw); type: physicochemical; conditions: for Autosampler stability (24 h) Av. Accuracy (%): 10° C for 24 hours in the autosampler; for 3x freeze-thaw Av. Accuracy (%): after three freeze-thaw cycles; for Benchtop stability (19 h) Ac. Accuracy (%): room temperature for 19 hours
[4] = linear regression of MR AUC0–8 h OH-torsemide/torsemide (CYP2C9 activity) on PCB plasma concentration

Chain of HEK293 cells overexpressing CYP2C9 (P11712 whole entry): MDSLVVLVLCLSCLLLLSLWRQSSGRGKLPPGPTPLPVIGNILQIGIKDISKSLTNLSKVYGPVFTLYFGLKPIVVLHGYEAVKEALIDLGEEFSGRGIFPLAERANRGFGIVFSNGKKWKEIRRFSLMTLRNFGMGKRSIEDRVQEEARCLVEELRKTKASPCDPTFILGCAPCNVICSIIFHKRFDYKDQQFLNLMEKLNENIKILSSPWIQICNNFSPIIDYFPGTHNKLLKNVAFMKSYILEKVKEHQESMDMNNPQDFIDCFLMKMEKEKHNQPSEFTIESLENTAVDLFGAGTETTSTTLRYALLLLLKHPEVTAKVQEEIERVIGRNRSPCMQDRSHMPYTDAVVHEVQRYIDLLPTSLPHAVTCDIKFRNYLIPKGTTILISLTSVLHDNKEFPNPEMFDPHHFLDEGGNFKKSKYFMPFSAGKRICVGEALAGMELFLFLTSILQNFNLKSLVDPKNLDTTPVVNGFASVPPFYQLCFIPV
Chain of recombinant CYP2C9 (P11712 whole entry): as above

SMILES: Clc1ccc(-c2cc(Cl)c(Cl)cc2Cl)cc1 [PCB74]
- association with CYP2C9 activity in hierarchical generalized mixed model (CYP2C9; adjusted for co-factors (smoking status, gender, BMI, age)): became significant when BMI, gender, or all factors were included as co-factors
- t value (CYP2C9; [4]): 1,826
- β (standardized regression coefficient) (CYP2C9; [4]): 0,395
- t value (CYP2C9; linear regression of MR AUC0–8 h OH-torsemide/torsemide (CYP2C9 activity) on PCB plasma concentration, PM excl): 1,723
- effect on CYP2C9 enzyme activity (luminescence) (recombinant CYP2C9): remained unaffected
- effect on CYP2C9 activity in HEK293 cells (torsemide probe) [1]: did not significantly modulate CYP2C9 activity
- t value (CYP2D6): 1,723
- β (standardized regression coefficient) (CYP2D6): 0,376
- PCB plasma concentration, Mean [±SD] HELPcB ([2]; HELPcB (occupationally exposed) group): 0.129 ± 0.121 ng/mL
- PCB plasma concentration, Geometric mean, HELPcB ([2]; HELPcB group, N 10): 0.086 ng/mL
- PCB plasma concentration, Mean [±SD] all ([2]; all participants): 0.071 ± 0.102 ng/mL
- PCB plasma concentration, Mean [±SD] control ([2]; control group (background exposure)): 0.014 ± 0.011 ng/mL
- PCB plasma concentration, Geometric mean, Control ([2]; control group, N 10): 0.010 ng/mL
- t value (CYP2B6): 0,808
- β (standardized regression coefficient) (CYP2B6): 0,204
- t value (CYP2B6; PM excl): 0,622
- β (standardized regression coefficient) (CYP2B6; PM excl): 0,170
- effect on CYP2C9 mRNA expression (CYP2C9 mRNA): did not significantly increase CYP2C9 mRNA expression

SMILES: CCOc1ccc(NC(C)=O)cc1 [phenacetin, reference compound]
- CYP1A2-mediated metabolism of the substrate (Human CYP1A2; 10 µM substrate, 50 pmol/mL CYP1A2 supersomes, 2 mM NADPH, 1 h (phenacetin), 1 and 4 h (PCB118)): efficiently catalyzed the O-de-ethylation of phenacetin to paracetamol

SMILES: Oc1c(Cl)cc(-c2ccc(Cl)c(Cl)c2)c(Cl)c1Cl [4-OH-CB107]
- NADPH dependency of metabolite formation from PCB118 (Human CYP1A2; control incubations lacking NADPH, substrate, or enzyme): strictly NADPH-dependent

SMILES: COc1ccc2[nH]c([S+]([O-])Cc3ncc(C)c(OC)c3C)nc2c1 (stereo not drawn) [omeprazol, omeprazole, reference compound]
- effect on CYP1A2 mRNA expression (CYP1A2 mRNA): strongly upregulated CYP1A2 expression
- Autosampler stability (24 h) Av. Accuracy (%) ([3]; QC conc. 0,5 ng/ml): 114,94%
- 3x freeze-thaw Av. Accuracy (%) ([3]; QC conc. 0,5 ng/ml): 112,03%
- Benchtop stability (19 h) Ac. Accuracy (%) ([3]; QC conc. 0,5 ng/ml): 117,42%
- Autosampler stability (24 h) Av. Accuracy (%) ([3]; QC conc. 0,25 ng/ml): 102,23%
- 3x freeze-thaw Av. Accuracy (%) ([3]; QC conc. 0,25 ng/ml): 112,67%
- Benchtop stability (19 h) Ac. Accuracy (%) ([3]; QC conc. 0,25 ng/ml): 91,86%
- Autosampler stability (24 h) Av. Accuracy (%) ([3]; QC conc. 60 ng/ml): 111,22%
- 3x freeze-thaw Av. Accuracy (%) ([3]; QC conc. 60 ng/ml): 106,21%
- Benchtop stability (19 h) Ac. Accuracy (%) ([3]; QC conc. 60 ng/ml): 112,32%
- Autosampler stability (24 h) Av. Accuracy (%) ([3]; QC conc. 150 ng/ml): 103,07%
- 3x freeze-thaw Av. Accuracy (%) ([3]; QC conc. 150 ng/ml): 105,55%
- Benchtop stability (19 h) Ac. Accuracy (%) ([3]; QC conc. 150 ng/ml): 104,38%
- Autosampler stability (24 h) Av. Accuracy (%) ([3]; QC conc. 1,5 ng/ml): 114,49%
- 3x freeze-thaw Av. Accuracy (%) ([3]; QC conc. 1,5 ng/ml): 111,42%
- Benchtop stability (19 h) Ac. Accuracy (%) ([3]; QC conc. 1,5 ng/ml): 115,14%
